Results reported in patent US20070185176A1, “Heparanase inhibitors and uses thereof” (Insight Bioharmaceuticals Ltd., priority 2004, published 2007).

molecular target: T1, human recombinant heparanase (h-hpa) (Homo sapiens, UniProt Q9Y251); experiment: In vitro dimethylmethylene blue (DMB) assay for heparanase activity; conditions: not given
T1 sequence (Q9Y251 158-543 limits assumed): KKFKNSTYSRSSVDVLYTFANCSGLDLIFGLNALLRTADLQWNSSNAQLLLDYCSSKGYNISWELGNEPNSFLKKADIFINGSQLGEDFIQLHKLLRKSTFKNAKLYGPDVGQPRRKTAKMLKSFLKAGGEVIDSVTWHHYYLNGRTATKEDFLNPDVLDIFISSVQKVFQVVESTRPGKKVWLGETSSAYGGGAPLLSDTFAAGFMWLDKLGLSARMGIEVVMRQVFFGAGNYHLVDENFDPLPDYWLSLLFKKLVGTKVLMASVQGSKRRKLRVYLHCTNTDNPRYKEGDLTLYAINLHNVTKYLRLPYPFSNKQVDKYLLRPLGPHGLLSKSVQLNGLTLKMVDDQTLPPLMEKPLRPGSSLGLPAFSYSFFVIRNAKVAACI
T1 sequence (Q9Y251 36-109 limits assumed): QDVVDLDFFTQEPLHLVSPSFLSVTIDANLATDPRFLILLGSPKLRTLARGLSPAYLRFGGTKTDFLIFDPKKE

SMILES | IC50 [nM]
CCCCCCCCCCCCCCCCCC1=NN(c2ccc(Oc3ccccc3)c(S(=O)(=O)O)c2)C(=O)C1/N=N/c1ccc(N(CC)CC)cc1 (stereo not drawn) [Compound 10] | 260
CCCCCCCCCCCCCCCCCCN(C(=O)c1ccc2ccccc2c1O)c1cc(C(=O)O)cc(C(=O)O)c1 [Compound 3] | 380
CCCCCCCCCCCCCCCC1=NN(c2ccc(S(=O)(=O)O)cc2)C(=O)C1Br (stereo not drawn) [Compound 13] | 1000
CCCCCCCCCCCCCCCCCC1=Nn2c(nc3c(C(=O)O)cc(S(=O)(=O)O)cc32)C1 [Compound 4] | 1200
CCCCCCCCCCCCCCCCCCNCC(O)Cn1c2ccc(Br)cc2c2cc(Br)ccc21 (stereo not drawn) [Compound 91] | 15000
CCCCCCCCCCCCC/C=C/CC(O)(C(=O)O)C(F)(F)F (stereo not drawn) [Compound 97] | 6000
CCCCCCCCCCCCCCCCCC(=O)Nc1ccc(C(=O)CC(=O)Nc2cc(C(=O)O)ccc2Oc2cc(C(=O)O)cc(C(=O)O)c2)cc1 [Compound 60] | 440
CCCCCCCCCCCCCCCCOc1ccccc1C1C=NN(c2ccc(S(=O)(=O)O)cc2)C1=O (stereo not drawn) [Compound 28] | 1000
CCCCCCCCCCCCCCCCCC(=O)NC1=NN(c2ccc(Oc3ccccc3)c(S(=O)(=O)O)c2)C(=O)C1/N=N/c1ccc(O)cc1Cl (stereo not drawn) [Compound 69] | 180
CCCCCCCCCCCCCCCCCCN(C)c1ccc(S(=O)(=O)O)cc1NC(=O)c1cc(/N=N/c2c(Cl)cccc2Cl)c2ccccc2c1O [Compound 53] | 400
CCCCCCCCCCCCCCCCCC1=Nn2c(nc3cc(C(=O)O)ccc32)C1S(=O)(=O)O (stereo not drawn) [Compound 36] | 1420
CCCCCCCCCCCCCCCC[n+]1ccc(C=NO)cc1 [Compound 80] | 17000
CCN1C(=O)/C(=C2\SC(=S)N(CCCCCCCCCCC(=O)O)C2=O)c2ccccc21 [Compound 82] | 17000
CCCCCCCCCCCCCCCCCCn1c(C)nc2cc(S(=O)(=O)O)ccc21 [Compound 73] | 1400
CCCCCCCCCCCCCCCCCC[n+]1c2cc(N(C)C)ccc2cc2ccc(N(C)C)cc21 [Compound 79] | 1600
CCCCCCCCC(CCCCCCCC)C1=NN(c2cccc(S(=O)(=O)O)c2)C(=O)C1 [Compound 17] | 2700
CCCCCCCCCCCCCCCCCCn1c(-c2ccc3ccccc3c2O)nc2cc(S(=O)(=O)O)ccc21 [Compound 42] | 480
CCCCCCCCCCCCCCCCCCNC(=O)c1cc(S(=O)(=O)O)c2ccccc2c1O [Compound 72] | 320
CCCCCCCCCCCCCCCCCC1=NN(c2nc3cc(C(=O)O)cc(C(=O)O)c3s2)C(=O)C1 [Compound 39] | 2800
CCCCCCCCCCCC1SC1CCCCC(=O)Nc1cc(C(=O)O)ccc1Oc1cc(C(=O)O)cc(C(=O)O)c1 (stereo not drawn) [Compound 92] | 500
CCCCCCCCCCCCCCCCCC1=NN(c2ccc(Oc3ccccc3)c(S(=O)(=O)O)c2)C(=O)C1/N=N/c1cccc(O)c1 (stereo not drawn) [Compound 16] | 220

The remaining lines, values ahead:

IC50 [nM] | SMILES
9000 | CCCCCCCCCCCCCCCC(=O)OC[C@H](O)C1OC(=O)C(O)=C1O (stereo partly drawn) [Compound 78]
7700 | CCCCCCCCCCCCCCCCCCOc1ccc(C(=O)O)cc1NC(=O)c1cc(Sc2nnnn2-c2ccccc2)c2ccccc2c1O [Compound 46]
6800 | CCCCCCCCCCNCC(O)Cn1c2ccc(Cl)cc2c2cc(Cl)ccc21 (stereo not drawn) [Compound 68]
1700 | CCCCCCCCCCCCCCCCCC(=O)NNC(=O)CC(=O)Nc1ccccc1C(=O)O [Compound 2]
1500 | CCCCCCCCCCCCCCCCCC1=NN(c2ccc(-c3nc4cc(S(=O)(=O)O)ccc4s3)cc2)C(=O)/C1=N\c1ccc(N(CC)CC)cc1 [Compound 37]
1450 | CCCCCCCCCCCCCCCCCC1=NN(c2nc3ccc(S(=O)(=O)O)cc3[nH]2)C(=O)/C1=N\c1ccc(N(CC)CC)cc1 [Compound 38]
870 | CCCCCCCCCCCCCCCCCCCCC1=NN(c2ccc(S(=O)(=O)O)cc2N)C(=O)C1 [Compound 14]
650 | CCCCCCCCCCCCCCCCCC(=O)NC1=NN(c2ccc(Oc3ccccc3)c(S(=O)(=O)O)c2)C(=O)C1/N=N/c1c(C)nn(C)c1C (stereo not drawn) [Compound 22]
630 | CCCCCCCCCCCCCCCCCC1=NN(c2ccc(Oc3ccc(OCC)cc3)c(S(=O)(=O)O)c2)C(=O)C1 [Compound 24]
550 | CCCCCCCCCCCCCCCCCCN(C(=O)c1cc(Br)c2ccccc2c1O)c1cc(C(=O)O)cc(C(=O)O)c1 [Compound 43]
520 | CCCCCCCCCCCCCCCc1ccc(OC(CC)C(=O)NCCCNC(=O)c2ccc3ccccc3c2O)cc1 (stereo not drawn) [Compound 31]
430 | CCCCCCCCCCCCCCCCCCN(C)c1ccc(S(=O)(=O)O)cc1NC(=O)c1cc(/N=N/c2cc(OC)c(O)cc2Cl)c2ccccc2c1O [Compound 55]
400 | CCCCCCCCCCCCCCCCCCOc1ccc(C(=O)CC(=O)Nc2ccc(Oc3cccc(C(=O)O)c3)c(C(=O)O)c2)cc1 [Compound 23]
320 | CCCCCCCCCCCCCCCCCC1=NN(c2ccc(Oc3ccccc3)c(S(=O)(=O)O)c2)C(=O)C1 [Compound 29]
320 | CCCCCCCCCCCCCCCCCC1=NN(c2ccc(Oc3ccccc3)cc2S(=O)(=O)O)C(=O)C1/N=N/c1ccc(OC)cc1 (stereo not drawn) [Compound 19]
290 | CCCCCCCCCCCCCCCCCC(=O)NC1=NN(c2ccc(Oc3ccccc3)c(S(=O)(=O)O)c2)C(=O)C1/N=N/c1cc(C(=O)OC)ccc1O (stereo not drawn) [Compound 18]
290 | CCCCCCCCCCCCCCCCCCOc1ccccc1C(=O)CC(=O)Nc1cc(NS(=O)(=O)c2cc(C(=O)O)cc(C(=O)O)c2)ccc1Cl [Compound 64]
250 | CCCCCCCCCCCCCCCCCC1=NN(c2ccc(Oc3ccccc3)c(S(=O)(=O)O)c2)C(=O)C1/N=N/c1ccc(O)c(OC)c1 (stereo not drawn) [Compound 15]
250 | CCCCCCCCCCCCCCCCCCN(C)c1ccc(S(=O)(=O)O)cc1NC(=O)c1cc(/N=N/c2cccc(NS(C)(=O)=O)c2)c2ccccc2c1O [Compound 47]
240 | CCCCCCCCCCCCCCCCCC(=O)Nc1nn(-c2ccc(Oc3ccccc3)c(S(=O)(=O)O)c2)c(O)c1/N=N/c1c(C)nn(CCCCCCCCCC)c1C [Compound 32]
240 | CCCCCCCCCCCCCCCCCC1=NN(c2ccc(Oc3ccccc3)c(S(=O)(=O)O)c2)C(=O)C1/N=N/c1c(C)n[nH]c1C (stereo not drawn) [Compound 12]
210 | CCCCCCCCCCCCCCCCCCN(C)c1ccc(S(=O)(=O)O)cc1NC(=O)c1cc(/N=N/c2cccc(NS(=O)(=O)c3ccccc3)c2)c2ccccc2c1O [Compound 33]
160 | CCCCCCCCCCCCCCCCCC(=O)NC1=NN(c2ccc(Oc3ccccc3)c(S(=O)(=O)O)c2)C(=O)C1/N=N/c1cc(C(=O)O)c(O)cc1Cl (stereo not drawn) [Compound 9]
160 | CCCCCCCCCCCCCCCCCC1=NN(c2ccc(Oc3ccccc3)c(S(=O)(=O)O)c2)C(=O)C1C(C)C (stereo not drawn) [Compound 30]

test system: HT1080 cells; experiment: In vitro assay of invasion inhibition (BD BioCoat Angiogenesis System, matrigel); assay type: cell-based, human; conditions: not given
Experimental: (c) In Vitro Assay of Invasion Inhibition by Heparanase Inhibitors
The ability of the compounds of the invention to inhibit cell invasion was determined quantitatively by the in vitro Endothelial Cell Migration assay using a BD BioCoat Angiogenesis System kit. The kit consists of a 24-multiwell insert plate (FluoroBlok, BD Falcon) containing a microporous (3.0 μm pore size) polyethylene terephthalate (PET) membrane that is capable of blocking fluorescence completely (>99% efficiency). This membrane is uniformly coated with matrigel (BD Matrigel Matrix). The uniform layer of matrigel matrix serves as a reconstituted authentic basement membrane in vitro, providing a true barrier to non-invasive cells, but allowing endothelial cells to attach to the membrane and freely migrate towards an angiogenic stimulus in the lower chamber of the insert plate. Post-labeling the cells with a fluorescent dye and measuring the fluorescence of invading cells in a fluorescent plate reader, provides quantitative measurement of cell invasion.
To cover the optimal seeding density for HT1080 cells, suspensions containing various cell concentrations were prepared: 1 ml of 3×10^5 cells/ml, 8 ml of 1.5×10^5 cells/ml and 1 ml of 0.75×10^5 cells/ml. The top chambers of each well in the inserts was filled with 0.25 ml cell-suspension, […] DMEM containing 5% fetal calf serum and an inhibitor solution. The plates were incubated for 22 hours at 37° C. and 8% CO2 atmosphere. At the end of incubation, the medium was aspirated from the upper chambers, and the insert was transferred into a second 24-well plate containing 0.5 ml/well of the fluorescent dye Calcein AM solution (4 μg/ml per plate, prepared from 50 μg Calcein AM dissolved in 20 μl DMSO and 12.5 ml of warm HBSS medium), and incubated for 90 minutes at 37° C., 8% CO2 atmosphere. Fluorescence of invaded cells was read in a fluorescence plate reader with bottom read capabilities at excitation/emission wavelength of 485/530 nm, without further manipulation. Only those labeled cells that have invaded the matrigel and passed through the pores of the PET membrane, were detected.

SMILES | inhibition of cell invasion
CCCCCCCCCCCCCCCCCC(=O)NNC(=O)CC(=O)Nc1ccccc1C(=O)O [Compound 2] | effective inhibitors of cell invasion
CCCCCCCCCCCCCCCCCCN(C(=O)c1ccc2ccccc2c1O)c1cc(C(=O)O)cc(C(=O)O)c1 [Compound 3] | effective inhibitors of cell invasion
CCCCCCCCCCCCCCCCCC(=O)NC1=NN(c2ccc(Oc3ccccc3)c(S(=O)(=O)O)c2)C(=O)C1 [Compound 1] | effective inhibitors of cell invasion

same assay, conditions: HT1080 cells through matrigel, non-toxic concentration, 22 hours

SMILES | Invasion
CCCCCCCCCCCCCCCCCC(=O)NNC(=O)CC(=O)Nc1ccccc1C(=O)O [Compound 2] | yes
CCCCCCCCCCCCCCCCCC1=NN(c2ccc(Oc3ccccc3)c(S(=O)(=O)O)c2)C(=O)C1/N=N/c1ccc(N(CC)CC)cc1 (stereo not drawn) [Compound 10] | yes
CCCCCCCCCCCCCCCCCCN(C(=O)c1ccc2ccccc2c1O)c1cc(C(=O)O)cc(C(=O)O)c1 [Compound 3] | yes
CCCCCCCCCCCCCCCC1=NN(c2ccc(S(=O)(=O)O)cc2)C(=O)C1Br (stereo not drawn) [Compound 13] | yes
CCCCCCCCCCCCCCCCCC1=NN(c2ccc(Oc3ccccc3)c(S(=O)(=O)O)c2)C(=O)C1 [Compound 29] | yes
CCCCCCCCCCCCCCCCCC(=O)NC1=NN(c2ccc(Oc3ccccc3)c(S(=O)(=O)O)c2)C(=O)C1 [Compound 1] | yes
CCCCCCCCCCCCCCCCCC(=O)NC1=NN(c2ccc(Oc3ccccc3)c(S(=O)(=O)O)c2)C(=O)C1/N=N/c1cc(C(=O)O)c(O)cc1Cl (stereo not drawn) [Compound 9] | yes
CCCCCCCCCCCCCCCCCC(=O)Nc1nn(-c2ccc(Oc3ccccc3)c(S(=O)(=O)O)c2)c(O)c1/N=N/c1c(C)nn(CCCCCCCCCC)c1C [Compound 32] | yes
CCCCCCCCCCCCCCCCCC1=NN(c2ccc(Oc3ccc(OCC)cc3)c(S(=O)(=O)O)c2)C(=O)C1 [Compound 24] | yes
CCCCCCCCCCCCCCCCCC1=Nn2c(nc3c(C(=O)O)cc(S(=O)(=O)O)cc32)C1 [Compound 4] | yes
CCCCCCCCCCCCCCCCCC1=NN(c2ccc(Oc3ccccc3)c(S(=O)(=O)O)c2)C(=O)C1/N=N/c1c(C)n[nH]c1C (stereo not drawn) [Compound 12] | yes
CCCCCCCCCCCCCCCCCC1=NN(c2ccc(Oc3ccccc3)c(S(=O)(=O)O)c2)C(=O)C1C(C)C (stereo not drawn) [Compound 30] | yes
CCCCCCCCCCCCCCCCCC1=NN(c2ccc(Oc3ccccc3)c(S(=O)(=O)O)c2)C(=O)C1/N=N/c1ccc(O)c(OC)c1 (stereo not drawn) [Compound 15] | yes
CCCCCCCCCCCCCCCCCC(=O)NC1=NN(c2ccc(Oc3ccccc3)c(S(=O)(=O)O)c2)C(=O)C1/N=N/c1cc(C(=O)OC)ccc1O (stereo not drawn) [Compound 18] | yes
CCCCCCCCCCCCCCCCOc1ccccc1C1C=NN(c2ccc(S(=O)(=O)O)cc2)C1=O (stereo not drawn) [Compound 28] | yes
CCCCCCCCCCCCCCCCCC(=O)NC1=NN(c2ccc(Oc3ccccc3)c(S(=O)(=O)O)c2)C(=O)C1/N=N/c1c(C)nn(C)c1C (stereo not drawn) [Compound 22] | yes
CCCCCCCCCCCCCCCc1ccc(OC(CC)C(=O)NCCCNC(=O)c2ccc3ccccc3c2O)cc1 (stereo not drawn) [Compound 31] | yes
CCCCCCCCCCCCCCCCCCN(C(=O)c1cc(Br)c2ccccc2c1O)c1cc(C(=O)O)cc(C(=O)O)c1 [Compound 43] | yes
CCCCCCCCC(CCCCCCCC)C1=NN(c2cccc(S(=O)(=O)O)c2)C(=O)C1 [Compound 17] | yes
CCCCCCCCCCCCCCCCCC1=NN(c2ccc(Oc3ccccc3)cc2S(=O)(=O)O)C(=O)C1/N=N/c1ccc(OC)cc1 (stereo not drawn) [Compound 19] | yes
CCCCCCCCCCCCCCCCCC1=NN(c2ccc(Oc3ccccc3)c(S(=O)(=O)O)c2)C(=O)C1/N=N/c1cccc(O)c1 (stereo not drawn) [Compound 16] | yes
